In one test the target is BLT1-T4L. Description: Competition assay of ligands against ^3H-LTB4, BLT1-T4L expressed in P. pastoris. In kind it is binding, guinea pig. The settings on record: for logIC50: log value (negative). From the text:
For the ligand binding assay of BLT1-T4Ls, the T4L cDNA was integrated into the cDNA, encoding the newly generated thermostable BLT1 mutant with the additional mutation V212A, by the consensus method (residues 1-14 deleted and H83G/K88G/V212A/S309A mutations), with the α-factor PrePro signal sequence and the FLAG tag at the N-terminal, and the PreScission site and the His6 tag at the C-terminal of BLT1 (Hori T. et al., 2010, supra) in the pPIC3.5K vector, using the In-Fusion enzyme (FIG. 7A). The expression vectors were introduced into the yeast Pichia pastoris using an EasyComp kit (Thermo Fisher Scientific). BLT1-T4Ls were expressed in 10 ml cultures, and the membrane fraction was prepared as described previously (Hori T. et al., 2010, supra; Hon T. et al., 2015, supra).
(§1) For the evaluation of the ligand-binding activity of the BLT1 mutants and BLT1-T4Ls, a ^3H-LTB4 binding assay was performed using the BLT1-expressing membrane fractions of COS-7, HEK293, or P. pastoris cells, as described previously (Hori T. et al., 2010, supra; Hori T. et al., 2015, supra). For the evaluation of the thermostability, the membrane fraction was heat-treated before the ^3H-LTB4 binding assay.

A further test addresses T1, BLT1 D66^2.50A mutant (Cavia porcellus, UniProt H0VYV8, D66A).
T1 construct: expressed in transfected cells; host or cells: HEK293 (membrane fraction)
T1 sequence (H0VYV8 1-348 D66A): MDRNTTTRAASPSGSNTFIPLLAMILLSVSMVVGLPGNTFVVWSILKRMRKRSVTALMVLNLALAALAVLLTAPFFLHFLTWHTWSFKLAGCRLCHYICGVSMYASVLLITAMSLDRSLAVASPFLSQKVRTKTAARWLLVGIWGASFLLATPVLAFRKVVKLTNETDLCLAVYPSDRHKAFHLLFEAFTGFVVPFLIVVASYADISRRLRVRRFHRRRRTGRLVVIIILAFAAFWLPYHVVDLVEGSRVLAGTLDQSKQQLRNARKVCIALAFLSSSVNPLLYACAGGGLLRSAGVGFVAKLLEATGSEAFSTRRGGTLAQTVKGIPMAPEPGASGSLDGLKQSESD
Description: Competition binding of BIIL260 to 0.5 nM ^3H-LTB4, BLT1 mutant in HEK293 membrane fraction. Details: species or system guinea pig.
From the text: (§2) (A) Structure of the BIIL260-binding site. BIIL260 and the BLT1 side chains within 4 Å from BIIL260 are represented by stick models, and transmembrane helices are depicted by thin ribbons. Sulfur atoms are colored gold. (B) Schematic representation of the BLT1-BIIL260 interaction. Intermolecular forces such as the salt bridge, hydrogen bonding, π-to-edge, CH-to-π, and hydrophobic interactions are indicated in red, blue, orange, violet, and green, respectively. The three non-identical residues in human BLT1 and BLT2, a cognate receptor of BLT1, are highlighted in green shaded boxes, and the corresponding residues of human BLT1 and BLT2 (hBLT1 and hBLT2, respectively) are also presented. (C) Competition binding assays of BIIL260 to 0.5 nM ^3H-LTB4, using the membrane fractions of HEK293 cells expressing the mutant and wild-type BLT1s. The mutations were introduced at the residues involved in the specific BIIL260 binding. Each point (±s.e.m.) indicates the mean value of two independent experiments, each with triplicate reactions. NS is non-specific binding measured with 0.5 μM LTB4.
(§3) For the evaluation of the thermostabilities of guinea pig BLT1 mutants designed by the consensus method (FIG. 8A), point mutations were introduced using a QuikChange kit (Agilent) to the previously constructed thermostabilized BLT1 mutant cDNA (residues 1-14 deleted, H83G/K88G/S309A mutations, and an N-terminal FLAG-tag) in the pcDNA3 vector (Hori, T. et al., Protein Expr. Purif. 72 (2010) 66-74; Hori, T. et al., Biochem. Biophys. Rep. 4 (2015) 243-249). The expression vectors encoding the BLT1 mutants were transfected into COS-7 cells with Lipofectamine 2000. For the analysis of the BIIL260 binding residues of BLT1, point mutations were introduced, using the In-Fusion enzyme (Clontech), into the wild-type BLT1 cDNA with the N-terminal FLAG-tag in the pcDNA3 vector. The expression vectors were transfected into HEK293 cells, using polyethyleneimine. […] The BLT1 mutants were transiently expressed for three days at 37° C. The cells were washed with PBS, harvested with PBS-EDTA, disrupted with a sonicator, and centrifuged at 800×g for 5 min. The supernatant was further ultra-centrifuged at 100,000×g for 60 min, and the precipitate was collected.
as §1

The target of another test is T2, BLT1 L80^2.64A mutant (Cavia porcellus, UniProt H0VYV8, L80A).
T2 construct: expressed in transfected cells; host or cells: HEK293 (membrane fraction)
The description is as above. Further details: species or system guinea pig.
From the text: as §2, §3, §1

For the next test, the target named is T3, BLT1 S106^3.39A mutant (Cavia porcellus, UniProt H0VYV8, S106A).
T3 construct: expressed in transfected cells; host or cells: HEK293 (membrane fraction)
The test is described as above. Further details: species or system guinea pig.
From the text: as §2, §3, §1

The next test concerns the target T4, BLT1 S276^7.45A mutant (Cavia porcellus, UniProt H0VYV8, S276A).
T4 construct: expressed in transfected cells; host or cells: HEK293 (membrane fraction)
The description is as above. Further details: species or system guinea pig.
From the text: as §2, §3, §1

A further test has as its target T5, BLT1 V69^2.53A mutant (Cavia porcellus, UniProt H0VYV8, V69A).
T5 construct: expressed in transfected cells; host or cells: HEK293 (membrane fraction)
T5 sequence (H0VYV8 1-348 V69A): T1 sequence (H0VYV8 1-348 D66A) with A66D, V69A
The description is as above. Further details: species or system guinea pig.
From the text: as §2, §3, §1

The target of the next test is T6, BLT1 W236^6.48A mutant (Cavia porcellus, UniProt H0VYV8, W236A).
T6 construct: expressed in transfected cells; host or cells: HEK293 (membrane fraction)
The test is described as above. Details: species or system guinea pig.
From the text: as §2, §3, §1

For test [1], the target named is T7, wild-type BLT1 (Cavia porcellus, UniProt H0VYV8).
T7 construct: expressed in transfected cells; host or cells: HEK293 (membrane fraction)
The test is described as follows: Competition binding of BIIL260 to 0.5 nM ^3H-LTB4, wild-type BLT1 in HEK293 membrane fraction. Further details: species or system guinea pig. The conditions noted are these: WT.
From the text: as §2, with “LTB4. […]” for “LTB4.”

The target of test [2] is T7, wild-type BLT1. The test is described as follows: Competition binding assay of benzamidine and NaCl to 0.5 nM ^3H-LTB4 (allosteric modulation titration analysis). Further details: species or system guinea pig. The settings on record: for logα / α: cooperative factor between ^3H-LTB4 and the modulator. The text has this:
Each point (±s.e.m.) indicates the mean value of three independent experiments, each with triplicate reactions. […] Each point (±s.e.m.) indicates the mean value of three independent experiments, each with triplicate reactions. […] Each point (±s.e.m.) indicates the mean value of triplicate reactions. For the evaluation of the thermostabilities of guinea pig BLT1 mutants designed by the consensus method (FIG. 8A), point mutations were introduced using a QuikChange kit (Agilent) to the previously constructed thermostabilized BLT1 […] deleted, […] mutations, and an N-terminal FLAG-tag) in the pcDNA3 vector (Hori, T. et al., Protein Expr. Purif. 72 (2010) 66-74; Hori, T. et al., Biochem. Biophys. Rep. 4 (2015) 243-249). The expression vectors encoding the BLT1 mutants were transfected into COS-7 cells with Lipofectamine 2000. For the analysis of the BIIL260 binding residues of BLT1, point mutations were introduced, using the In-Fusion enzyme (Clontech), into the wild-type BLT1 cDNA with the N-terminal FLAG-tag in the pcDNA3 vector. The expression vectors were transfected into HEK293 cells, using polyethyleneimine. […] The BLT1 mutants were transiently expressed for three days at 37° C. The cells were washed with PBS, harvested with PBS-EDTA, disrupted with a sonicator, and centrifuged at 800×g for 5 min. The supernatant was further ultra-centrifuged at 100,000×g for 60 min, and the precipitate was collected. For the evaluation of the ligand-binding activity of the BLT1 mutants and BLT1-[…], a ^3H-LTB4 binding assay was performed using the BLT1-expressing membrane fractions of COS-7, HEK293, or P. pastoris cells, as described previously (Hori T. et al., 2010, supra; Hori T. et al., 2015, supra). For the evaluation of the thermostability, the membrane fraction was heat-treated before the ^3H-LTB4 binding assay. […] For all of the pharmacological analyses, nonlinear regression curve fitting was performed using Prism 5 (Graph Pad Software).

Test [3] concerns the target T8, BLT1 (Cavia porcellus, UniProt H0VYV8). The test is described as follows: TGFα shedding assay with benzamidine (G-protein activation by LTB4). The class given is cell-based. Further details: expressed in transfected cells. The conditions noted are these: for logβ / β: LTB4-induced efficacy modulation by benzamidine. On the procedure: Each point (±s.e.m.) indicates the mean value of three independent experiments, each with triplicate reactions. […] Each point (±s.e.m.) indicates the mean value of three independent experiments, each with triplicate reactions. […] Each point (±s.e.m.) indicates the mean value of triplicate reactions. […] To determine the parameters, three steps of fitting procedures were performed.

The target of test [4] is T8, BLT1. Description: Saturation binding assay of ^3H-LTB4 and BLT1 with various concentrations of benzamidine. Further details: expressed in transfected cells; host or cells: HEK293 (membrane fraction); species or system guinea pig. On the procedure: Each point (±s.e.m.) indicates the mean value of three independent experiments, each with triplicate reactions. […] Each point (±s.e.m.) indicates the mean value of three independent experiments, each with triplicate reactions. […] Each point (±s.e.m.) indicates the mean value of triplicate reactions. For the evaluation of the ligand-binding activity of the BLT1 mutants and BLT1-[…], a ^3H-LTB4 binding assay was performed using the BLT1-expressing membrane fractions of COS-7, HEK293, or P. pastoris cells, as described previously (Hori T. et al., 2010, supra; Hori T. et al., 2015, supra). For the evaluation of the thermostability, the membrane fraction was heat-treated before the ^3H-LTB4 binding assay.

The mark [5] stands for this setting: saturation binding, global fitting.

Residue numbers refer to the chain shown, from its start. A value given as a limit tells only on which side of the number the result lay.

A word on the Ki: it is a dissociation constant, usually derived from enzyme kinetics or from competition with a known ligand. The IC50 is the midpoint of a concentration-inhibition curve. The low end stands for greater potency in that assay, the high end for weaker potency in that assay.

T4 sequence (H0VYV8 1-348 S276A): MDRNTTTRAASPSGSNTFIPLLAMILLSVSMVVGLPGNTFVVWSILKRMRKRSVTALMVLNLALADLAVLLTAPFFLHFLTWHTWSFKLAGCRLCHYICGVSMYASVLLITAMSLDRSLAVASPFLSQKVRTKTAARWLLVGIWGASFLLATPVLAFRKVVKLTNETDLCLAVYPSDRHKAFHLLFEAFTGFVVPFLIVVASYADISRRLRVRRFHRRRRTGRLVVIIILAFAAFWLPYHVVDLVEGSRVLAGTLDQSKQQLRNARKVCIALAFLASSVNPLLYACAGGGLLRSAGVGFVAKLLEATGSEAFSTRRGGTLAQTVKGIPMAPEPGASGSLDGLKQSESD
T7 sequence (H0VYV8 1-348): as the sequence (H0VYV8 1-348 S276A) above, with A276S counted along it
T8 sequence (H0VYV8 1-348): as the sequence (H0VYV8 1-348 S276A) above, with A276S counted along it
T6 sequence (H0VYV8 1-348 W236A): as the sequence (H0VYV8 1-348 S276A) above, with W236A, A276S counted along it
T2 sequence (H0VYV8 1-348 L80A): as the sequence (H0VYV8 1-348 S276A) above, with L80A, A276S counted along it
T3 sequence (H0VYV8 1-348 S106A): as the sequence (H0VYV8 1-348 S276A) above, with S106A, A276S counted along it

In the case of `CCOC(=O)NC(=N)c1ccc(OCc2cccc(COc3ccc(C(C)(C)c4ccc(O)cc4)cc3)c2)cc1`, on BLT1-T4L, the Ki stood at 148 nM and the logIC50 is given as −6.7.

In turn, `CC(C)(c1ccc(O)cc1)c1ccc(OCc2cccc(COc3ccc(C(=N)N)cc3)c2)cc1` [BIIL260] came in with an inhibition constant Ki on BLT1-T4L of 2.3 nM. Besides, the logIC50 with BLT1-T4L was −8.5; at BLT1 L80^2.64A mutant (log value (negative)), −7.9; on BLT1 S106^3.39A mutant (log value (negative)) it was −7.9; on BLT1 S276^7.45A mutant (S276^7.45A, log value (negative)) it was −6.9; at BLT1 V69^2.53A mutant (log value (negative)) it was −7.5; at BLT1 W236^6.48A mutant (log value (negative)), −7.2. Besides, the logIC50 at wild-type BLT1 [1] (log value (negative)) is on record as −7.5. In addition, at BLT1 D66^2.50A mutant (D66^2.50A), the “logIC50 (IC50)” value is on record as “No binding”. Also, the BIIL260-binding ability entry at BLT1 D66^2.50A mutant (D66^2.50A mutation) is reported as “abrogated”; on BLT1 S276^7.45A mutant (S276^7.45A mutation), “decreased”. The concentration for half-maximal inhibition (IC50) at BLT1 L80^2.64A mutant is 12 nM; at BLT1 S106^3.39A mutant it was 12 nM; on BLT1 S276^7.45A mutant (S276^7.45A), 124 nM; on BLT1 V69^2.53A mutant it was 33 nM; on BLT1 W236^6.48A mutant, 62 nM; at wild-type BLT1 [1], 30 nM.

As to `N=C(N)c1ccccc1` [Benzamidine, benzamidine], on wild-type BLT1 [2] (FIG. 3A), the “level of the LTB4-BLT1 binding” value is “decreased the level of the LTB4-BLT1 binding in a benzamidine concentration-dependent manner” and the “suppression of the BLT1-LTB4 binding compared with the sodium ion” value is “more potently than the sodium ion, by one order of magnitude”. Besides, on wild-type BLT1 [2], the logα was −0.82 and the α entry was “(α = 0.15)”. For the same molecule, at BLT1 [3] (FIGS. 3C and 3D), the “BLT1-LTB4-mediated Gq/il and G16 activation” value was “decreased”. At BLT1 [3] (G16), the logα is −0.45, the α entry is reported as “(α = 0.36)”, the logβ is listed as −1.6 and the β result is recorded as “(β = 0.03)”. For the same molecule, on BLT1 [3] (Gq/i1), the logα was found to be 0.00, the α entry is given as “(α = 1.00)”, the logβ is −1.9 and the β result is given as “(β = 0.01)”. For the same molecule, at BLT1 [3] (as a whole), the “cooperative factor of the LTB4-induced efficacy modulation (β)” value is under 1. For the same molecule, at BLT1 [3] (as a whole (binding and shedding assays)), the “cooperative factor of the binding of LTB4 to BLT1 (α)” value is reported as at most 1. Also, the “binding affinity of LTB4 toward BLT1” value on BLT1 [4] (FIG. 3B) is reported as “lowered”. Besides, on BLT1 [4] (setting [5]), the logα is listed as −0.93 and the α result is recorded as “(α = 0.12)”.

Consider `[Cl-].[Na+]` [NaCl], for which the “level of the LTB4-BLT1 binding” value at wild-type BLT1 [2] (FIG. 3A) is reported as “decreased in a sodium ion concentration-dependent manner”. Further, on wild-type BLT1 [2], the logα is given as −1.5 and the α result is reported as “(α = 0.035)”.
